Data: patent US20250312352A1, “GLP-1R MODULATING COMPOUNDS” (Gilead Sciences, Inc., priority 2021, published 2025)

Target: T1, GLP-1R (Homo sapiens, UniProt P43220)
T1 construct: host or cells: CHO cells
Experiment: GLP-1R activation cAMP assay (Assay 1 or Assay 2)
Assay type: cell-based
Details: cAMP increase in CHO cells stably expressing GLP-1R; compounds run on one of the two cAMP assays
Outline: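 EC50 values come from a sigmoidal fit of HTRF-detected cAMP rise versus log agonist concentration. GLP-1R-expressing CHO cells, equilibrated 1 h at 37 °C in HBSS with HEPES and BSA, received a 10-point compound dose series for 30 min before detection.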

T1 sequence (P43220 24-463): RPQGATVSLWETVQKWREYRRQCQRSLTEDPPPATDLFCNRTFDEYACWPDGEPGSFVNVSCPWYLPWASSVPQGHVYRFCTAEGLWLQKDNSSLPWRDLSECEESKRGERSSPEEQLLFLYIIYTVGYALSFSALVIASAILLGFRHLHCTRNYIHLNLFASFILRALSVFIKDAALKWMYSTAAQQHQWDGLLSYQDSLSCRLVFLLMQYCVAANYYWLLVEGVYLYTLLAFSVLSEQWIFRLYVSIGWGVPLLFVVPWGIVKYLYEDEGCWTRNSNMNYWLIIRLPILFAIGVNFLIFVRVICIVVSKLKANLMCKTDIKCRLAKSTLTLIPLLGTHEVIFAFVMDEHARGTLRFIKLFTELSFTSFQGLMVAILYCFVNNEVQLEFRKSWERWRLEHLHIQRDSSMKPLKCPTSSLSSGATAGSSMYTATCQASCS

O=C(O)c1ccc2nc(Cc3cc(F)c(-c4cccc(OCc5ccc(C#Cc6cncnc6)cc5F)n4)cc3F)n(C[C@@H]3CCO3)c2c1 [Example 138, (S)-2-(2,5-difluoro-4-(6-((2-fluoro-4-(pyrimidin-5-ylethynyl)benzyl)oxy)pyridin-2-yl)benzyl)-1-(oxetan-2-ylmethyl)-1H-benzo[d]imidazole-6-carboxylic acid] was tested, and the EC50 was 0.28 nM.
For O=C(O)c1ccc2nc(Cc3cc(F)c(-c4cccc(OCc5cnc(C(=O)NC6COC6)cc5F)n4)cc3F)n(C[C@@H]3CCO3)c2c1 [Example 247, (S)-2-(2,5-difluoro-4-(6-((4-fluoro-6-(oxetan-3-ylcarbamoyl)pyridin-3-yl)methoxy)pyridin-2-yl)benzyl)-1-(oxetan-2-ylmethyl)-1H-benzo[d]imidazole-6-carboxylic acid], the EC50 was 0.25 nM.
For Cn1ncc(C#Cc2ccc(COc3cccc(-c4cc(F)c(Cc5nc6ccc(C(=O)O)cc6n5C[C@@H]5CCO5)cc4F)n3)c(F)c2)c1Cl [Example 361, (S)-2-(4-(6-((4-((5-chloro-1-methyl-1H-pyrazol-4-yl)ethynyl)-2-fluorobenzyl)oxy)pyridin-2-yl)-2,5-difluorobenzyl)-1-(oxetan-2-ylmethyl)-1H-benzo[d]imidazole-6-carboxylic acid], the EC50 was 0.62 nM.
For CCOc1nnc(COc2cccc(-c3cc(F)c(Cc4nc5ccc(C(=O)O)cc5n4[C@@H]4COCC4(C)C)cc3F)n2)s1 [Example 430, (S)-1-(4,4-dimethyltetrahydrofuran-3-yl)-2-(4-(6-((5-ethoxy-1,3,4-thiadiazol-2-yl)methoxy)pyridin-2-yl)-2,5-difluorobenzyl)-1H-benzo[d]imidazole-6-carboxylic acid], the EC50 was 0.039 nM.
Compound “(S)-2-(4-(6-((5-cyano-3-fluorothiophen-2-yl)methoxy)-5-fluoropyridin-2-yl)-2,5-difluorobenzyl)-4-fluoro-1-(oxetan-2-ylmethyl)-1H-benzo[d]imidazole-6-carboxylic acid [Example 310]” has an EC50 of 0.038 nM.
With O=C(O)c1ccc2nc(Cc3cc(F)c(-c4cccc(OCc5nnc(C#CC6CC(F)(F)C6)s5)n4)cc3F)n(C[C@@H]3CCO3)c2c1 [Example 330, (S)-2-(4-(6-((5-((3,3-difluorocyclobutyl)ethynyl)-1,3,4-thiadiazol-2-yl)methoxy)pyridin-2-yl)-2,5-difluorobenzyl)-1-(oxetan-2-ylmethyl)-1H-benzo[d]imidazole-6-carboxylic acid] the EC50 was 0.431 nM.
Compound O=C(O)c1ccc2nc(Cc3cc(F)c(-c4cccc(OCc5ccc(-c6cn([C@H]7CCOC7)nn6)cc5F)n4)cc3F)n(C[C@@H]3CCO3)c2c1 [Example 217, 2-(2,5-difluoro-4-(6-((2-fluoro-4-(1-((S)-tetrahydrofuran-3-yl)-1H-1,2,3-triazol-4-yl)benzyl)oxy)pyridin-2-yl)benzyl)-1-(((S)-oxetan-2-yl)methyl)-1H-benzo[d]imidazole-6-carboxylic acid] has an EC50 of 0.27 nM.
Cc1ncc(COc2cccc(-c3cc(F)c(Cc4nc5ccc(C(=O)O)cc5n4C[C@@H]4CCO4)cc3F)n2)n1C [Example 179, (S)-2-(4-(6-((1,2-dimethyl-1H-imidazol-5-yl)methoxy)pyridin-2-yl)-2,5-difluorobenzyl)-1-(oxetan-2-ylmethyl)-1H-benzo[d]imidazole-6-carboxylic acid] was tested, and the EC50 was 4.59 nM.
Cn1nc(COc2cccc(-c3cc(F)c(Cc4nc5ccc(C(=O)O)cc5n4C[C@@H]4CCO4)cc3F)n2)cc1Cl [Example 38, (S)-2-(4-(6-((5-chloro-1-methyl-1H-pyrazol-3-yl)methoxy)pyridin-2-yl)-2,5-difluorobenzyl)-1-(oxetan-2-ylmethyl)-1H-benzo[d]imidazole-6-carboxylic acid] gave an EC50 of 0.6 nM.
In the case of Cn1cnc(COc2cccc(-c3cc(F)c(Cc4nc5ccc(C(=O)O)cc5n4C[C@@H]4CCO4)cc3F)n2)c1 [Example 177, (S)-2-(2,5-difluoro-4-(6-((1-methyl-1H-imidazol-4-yl)methoxy)pyridin-2-yl)benzyl)-1-(oxetan-2-ylmethyl)-1H-benzo[d]imidazole-6-carboxylic acid], the EC50 is reported as 34.6 nM.
For Cn1cc(C#Cc2ccc(COc3cccc(-c4cc(F)c(Cc5nc6ccc(C(=O)O)cc6n5C[C@@H]5CCO5)cc4F)n3)cc2)cn1 [Example 306, (S)-2-(2,5-difluoro-4-(6-((4-((1-methyl-1H-pyrazol-4-yl)ethynyl)benzyl)oxy)pyridin-2-yl)benzyl)-1-(oxetan-2-ylmethyl)-1H-benzo[d]imidazole-6-carboxylic acid], the EC50 was 0.621 nM.
Cn1ncc(C#Cc2ccc(COc3cccc(-c4cc(F)c(Cc5nc6ccc(C(=O)O)cc6n5C[C@@H]5CCO5)cc4F)n3)c(F)c2)c1C(N)=O [Example 359, (S)-2-(4-(6-((4-((5-carbamoyl-1-methyl-1H-pyrazol-4-yl)ethynyl)-2-fluorobenzyl)oxy)pyridin-2-yl)-2,5-difluorobenzyl)-1-(oxetan-2-ylmethyl)-1H-benzo[d]imidazole-6-carboxylic acid] gave an EC50 of 0.051 nM.
In the case of O=C(O)c1ccc2nc(Cc3cc(F)c(-c4cccc(OCc5ncc(-c6cnn(CC7CC7)c6)s5)n4)cc3F)n(C[C@@H]3CCO3)c2c1 [Example 88, (S)-2-(4-(6-((5-(1-(cyclopropylmethyl)-1H-pyrazol-4-yl)thiazol-2-yl)methoxy)pyridin-2-yl)-2,5-difluorobenzyl)-1-(oxetan-2-ylmethyl)-1H-benzo[d]imidazole-6-carboxylic acid], the EC50 is reported as 0.44 nM.
CCOc1nnc(COc2cccc(-c3cc(F)c(Cc4nc5ccc(C(=O)O)cc5n4CC4(CF)CC4)cc3F)n2)s1 [Example 266, 2-(4-(6-((5-ethoxy-1,3,4-thiadiazol-2-yl)methoxy)pyridin-2-yl)-2,5-difluorobenzyl)-1-((1-(fluoromethyl)cyclopropyl)methyl)-1H-benzo[d]imidazole-6-carboxylic acid] was tested, and the EC50 was 0.367 nM.
With O=C(O)c1ccc2nc(Cc3cc(F)c(-c4cccc(OCc5ccc(C#Cc6cccnc6)cc5F)n4)cc3F)n(C[C@@H]3CCO3)c2c1 [Example 139, (S)-2-(2,5-difluoro-4-(6-((2-fluoro-4-(pyridin-3-ylethynyl)benzyl)oxy)pyridin-2-yl)benzyl)-1-(oxetan-2-ylmethyl)-1H-benzo[d]imidazole-6-carboxylic acid] the EC50 was 0.28 nM.
Compound Cc1cc(Cc2nc3ccc(C(=O)O)cc3n2[C@@H]2COCC2(C)C)c(Cl)cc1-c1ccc(F)c(OCc2ncc(C(F)(F)F)s2)n1 [Example 371, (S)-2-(2-chloro-4-(5-fluoro-6-((5-(trifluoromethyl)thiazol-2-yl)methoxy)pyridin-2-yl)-5-methylbenzyl)-1-(4,4-dimethyltetrahydrofuran-3-yl)-1H-benzo[d]imidazole-6-carboxylic acid] has an EC50 of 1.77 nM.
With Cc1cc(Cc2nc3c(F)cc(C(=O)O)cc3n2C[C@@H]2CCO2)c(F)cc1-c1cccc(OCc2ccc(C#Cc3cnn(C)c3)cc2F)n1 [Example 153, (S)-4-fluoro-2-(2-fluoro-4-(6-((2-fluoro-4-((1-methyl-1H-pyrazol-4-yl)ethynyl)benzyl)oxy)pyridin-2-yl)-5-methylbenzyl)-1-(oxetan-2-ylmethyl)-1H-benzo[d]imidazole-6-carboxylic acid] the EC50 was 0.36 nM.
O=C(O)c1ccc2nc(Cc3cc(F)c(-c4cccc(OCc5cc6n(n5)CCOC6)n4)cc3F)n(C[C@@H]3CCO3)c2c1 [Example 7, (S)-2-(4-(6-((6,7-dihydro-4H-pyrazolo[5,1-c][1,4]oxazin-2-yl)methoxy)pyridin-2-yl)-2,5-difluorobenzyl)-1-(oxetan-2-ylmethyl)-1H-benzo[d]imidazole-6-carboxylic acid] was tested, and the EC50 was 3.71 nM.
With CNC(=O)c1ccc(COc2cccc(-c3cc(F)c(Cc4nc5ccc(C(=O)O)cc5n4C[C@@H]4CCO4)cc3F)n2)cn1 [Example 43, (S)-2-(2,5-difluoro-4-(6-((6-(methylcarbamoyl)pyridin-3-yl)methoxy)pyridin-2-yl)benzyl)-1-(oxetan-2-ylmethyl)-1H-benzo[d]imidazole-6-carboxylic acid] the EC50 was 0.3 nM.
With O=C(O)c1ccc2nc(Cc3cc(F)c(-c4cccc(OCc5ncc(C#Cc6cn[nH]c6)cc5F)n4)cc3F)n(C[C@@H]3CCO3)c2c1 [Example 286, (S)-2-(4-(6-((5-((1H-pyrazol-4-yl)ethynyl)-3-fluoropyridin-2-yl)methoxy)pyridin-2-yl)-2,5-difluorobenzyl)-1-(oxetan-2-ylmethyl)-1H-benzo[d]imidazole-6-carboxylic acid] the EC50 was 0.042 nM.
O=C(O)c1ccc2nc(Cc3cc(F)c(-c4cccc(OCc5cc(C(F)(F)F)sn5)n4)cc3F)n(C[C@@H]3CCO3)c2c1 [Example 13, (S)-2-(2,5-difluoro-4-(6-((5-(trifluoromethyl)isothiazol-3-yl)methoxy)pyridin-2-yl)benzyl)-1-(oxetan-2-ylmethyl)-1H-benzo[d]imidazole-6-carboxylic acid] gave an EC50 of 0.54 nM.
O=C(O)c1ccc2nc(Cc3cc(F)c(-c4cccc(OCc5ccc(C#Cc6nccs6)cc5F)n4)cc3F)n(C[C@@H]3CCO3)c2c1 [Example 141, (S)-2-(2,5-difluoro-4-(6-((2-fluoro-4-(thiazol-2-ylethynyl)benzyl)oxy)pyridin-2-yl)benzyl)-1-(oxetan-2-ylmethyl)-1H-benzo[d]imidazole-6-carboxylic acid] showed an EC50 of 0.33 nM.
Compound CCOc1nnc(COc2nc(-c3cc(F)c(Cc4nc5ccc(C(=O)O)cc5n4[C@@H]4COCC4(C)C)c(F)c3F)ccc2F)s1 [Example 265, (S)-1-(4,4-dimethyltetrahydrofuran-3-yl)-2-(4-(6-((5-ethoxy-1,3,4-thiadiazol-2-yl)methoxy)-5-fluoropyridin-2-yl)-2,3,6-trifluorobenzyl)-1H-benzo[d]imidazole-6-carboxylic acid] has an EC50 of 0.152 nM.
Work on O=C(O)c1ccc2nc(Cc3c(F)cc(-c4ccc(F)c(OCc5ncc(C(F)(F)F)s5)n4)c(F)c3F)n(C[C@@H]3CCO3)c2c1 [Example 446, (S)-1-(oxetan-2-ylmethyl)-2-(2,3,6-trifluoro-4-(5-fluoro-6-((5-(trifluoromethyl)thiazol-2-yl)methoxy)pyridin-2-yl)benzyl)-1H-benzo[d]imidazole-6-carboxylic acid] yielded an EC50 of 0.17 nM.
